Reference: US20080145440A1, “Microparticle preparation and medical composition” (priority 2006, published 2008)

Columns and labels:
[1] = tested on: mouse-derived colon cancer cells (colon-26); assay: In vitro cellular toxicity experiment (CCK-8); assay type: cell-based; conditions: colon-26, 10 μg/ml, forty eight hour treatment
Procedure: Using mouse-derived colon cancer cells (colon-26), a toxicity of the microparticle to cancer cells was experimented. Specifically, the experiment was conducted according to the following method:
The colon-26 cells were disseminated on a 96 well-plate at 1′104 concentration and cultured for twenty four hours. […] Cellular toxicity was examined by measuring absorbency under 450 nm with a CCK-8 kit (Dojindo, Kumamoto, Japan), the CCK-8 kit measuring formazan substitution of tetrazolium based on an intercellular enzyme.

[2] = tested on: Mouse-derived colon cancer (colon-26 adenocarcinoma) cells; assay: In vivo experiment of anticancer treatment; parameters: species or system BALB/c male mouse; conditions: cancer-bearing mice
Procedure: As an experimental animal, a six-week-old BALB/c male mouse (weight 25 g, Shimizu Laboratory Supplies Co., Ltd.) was selected. […] In the experiment, the same agent treatment was performed as in the toxicity experiment. Specifically, the experiment was conducted in the following methods:
Weight changes and survival rate were observed from the day of the administration.

For `N.N.[Cl][Pt][Cl]` [free CDDP, cis-dichlorodiammineplatinum (II)], which cytostatic effect [1] is on record?
The cytostatic effect was “approximately 50%”.

What about the “day of minimum weight after the administration” value ([2]; 20 mg/kg of CDDP intraperitoneal) of the same molecule?
The value was “fifth day”.

And the “anticancer effect, concentration difference 5 mg/kg vs 10 mg/kg” value ([2]; intraperitoneal)?
The value was “no significant difference in the anticancer effect”.

What about the “start of death from cancer after the administration” value ([2]; intraperitoneal) of the same molecule?
Its value is “started to die of cancer after a fortieth day”.
